Results published in PubChem BioAssay AID1259407 (Chemical Carcinogenesis Research Information System (CCRIS), 2018).
Active and inactive are the calls of the source. No rule for the calls is given here.

System: CCRIS mutagenicity, Ames/micronucleus/aberration tests
Assay: CCRIS mutagenicity studies
[1] = Test System: AMES SALMONELLA TYPHIMURIUM, Strain/Indicator: TA98, Metabolic Activation: NONE, Method: STANDARD PLATE
[2] = Test System: AMES SALMONELLA TYPHIMURIUM, Strain/Indicator: TA98, Metabolic Activation: RAT, LIVER, S-9, AROCLOR 1254, Method: STANDARD PLATE
[3] = Test System: AMES SALMONELLA TYPHIMURIUM, Strain/Indicator: TA100, Metabolic Activation: NONE, Method: STANDARD PLATE
[4] = Test System: AMES SALMONELLA TYPHIMURIUM, Strain/Indicator: TA100, Metabolic Activation: RAT, LIVER, S-9, AROCLOR 1254, Method: STANDARD PLATE
[5] = Test System: AMES SALMONELLA TYPHIMURIUM, Strain/Indicator: TA98, Metabolic Activation: NONE, Method: PREINCUBATION
[6] = Test System: AMES SALMONELLA TYPHIMURIUM, Strain/Indicator: TA100, Metabolic Activation: NONE, Method: PREINCUBATION
[7] = Test System: AMES SALMONELLA TYPHIMURIUM, Strain/Indicator: TA104, Metabolic Activation: NONE, Method: PREINCUBATION
[8] = Test System: AMES SALMONELLA TYPHIMURIUM, Strain/Indicator: TA1535, Metabolic Activation: NONE, Method: PREINCUBATION
[9] = Test System: AMES SALMONELLA TYPHIMURIUM, Strain/Indicator: TA1537, Metabolic Activation: NONE, Method: PREINCUBATION

For C/C=C\c1cc(OC)c(OC)cc1OC, the mutagenic call (Test System: AMES SALMONELLA TYPHIMURIUM, Strain/Indicator: TA97, Metabolic Activation: NONE, Method: STANDARD PLATE) was “inactive; negative”, the mutagenic call (Test System: AMES SALMONELLA TYPHIMURIUM, Strain/Indicator: TA97, Metabolic Activation: RAT, LIVER, S-9, AROCLOR 1254, Method: STANDARD PLATE) was “inactive; negative” and the mutagenic call [1] was “inactive; negative”. The mutagenic call [2] was “inactive; negative”, the mutagenic call [3] was “inactive; negative” and the mutagenic call [4] was “inactive; negative”. The mutagenic call (Test System: AMES SALMONELLA TYPHIMURIUM, Strain/Indicator: TA1535, Metabolic Activation: NONE, Method: STANDARD PLATE) was “active; positive”, the mutagenic call (Test System: AMES SALMONELLA TYPHIMURIUM, Strain/Indicator: TA1535, Metabolic Activation: RAT, LIVER, S-9, AROCLOR 1254, Method: STANDARD PLATE) was “inactive; negative” and the mutagenic call (Test System: AMES SALMONELLA TYPHIMURIUM, Strain/Indicator: TA1537, Metabolic Activation: NONE, Method: STANDARD PLATE) was “inactive; negative”. The mutagenic call (Test System: AMES SALMONELLA TYPHIMURIUM, Strain/Indicator: TA1537, Metabolic Activation: RAT, LIVER, S-9, AROCLOR 1254, Method: STANDARD PLATE) was “inactive; negative”, the mutagenic call (Test System: AMES SALMONELLA TYPHIMURIUM, Strain/Indicator: TA1538, Metabolic Activation: NONE, Method: STANDARD PLATE) was “inactive; negative” and the mutagenic call (Test System: AMES SALMONELLA TYPHIMURIUM, Strain/Indicator: TA1538, Metabolic Activation: RAT, LIVER, S-9, AROCLOR 1254, Method: STANDARD PLATE) was “inactive; negative”. For the same compound, the mutagenic call (Test System: UDS RAT HEPATOCYTES, Strain/Indicator: THY INCORP, Metabolic Activation: NONE, Method: LIQUID SCINTILLATION COUNTING) was “active; positive”.
O=C(O)c1cc(Cl)cc(Cl)c1 was tested, and the mutagenic call [5] was “inactive; negative”, the mutagenic call (Test System: AMES SALMONELLA TYPHIMURIUM, Strain/Indicator: TA98, Metabolic Activation: RAT LIVER S-9, PCB, Method: PREINCUBATION) was “inactive; negative” and the mutagenic call [6] was “inactive; negative”. For the same compound, the mutagenic call (Test System: AMES SALMONELLA TYPHIMURIUM, Strain/Indicator: TA100, Metabolic Activation: RAT LIVER S-9, PCB, Method: PREINCUBATION) was “inactive; negative”, the mutagenic call [7] was “inactive; negative” and the mutagenic call (Test System: AMES SALMONELLA TYPHIMURIUM, Strain/Indicator: TA104, Metabolic Activation: RAT LIVER S-9, PCB, Method: PREINCUBATION) was “inactive; negative”. For the same compound, the mutagenic call (Test System: E.COLI, Strain/Indicator: WP2 UVRA, Metabolic Activation: NONE, Method: PREINCUBATION) was “inactive; negative” and the mutagenic call (Test System: E.COLI, Strain/Indicator: WP2 UVRA, Metabolic Activation: RAT LIVER S-9, PCB, Method: PREINCUBATION) was “inactive; negative”.
For NCCCNCCCN, the mutagenic call (Test System: AMES SALMONELLA TYPHIMURIUM, Strain/Indicator: TA98, Metabolic Activation: HAMSTER, LIVER, S-9, AROCLOR 1254 (10%), Method: PREINCUBATION) was “inactive; negative”, the mutagenic call [5] was “inactive; negative” and the mutagenic call (Test System: AMES SALMONELLA TYPHIMURIUM, Strain/Indicator: TA98, Metabolic Activation: RAT, LIVER, S-9, AROCLOR 1254 (10%), Method: PREINCUBATION) was “inactive; negative”. For the same compound, the mutagenic call (Test System: AMES SALMONELLA TYPHIMURIUM, Strain/Indicator: TA98, Metabolic Activation: RAT, LIVER, S-9, PCB, Method: PREINCUBATION) was “inactive; negative”, the mutagenic call (Test System: AMES SALMONELLA TYPHIMURIUM, Strain/Indicator: TA100, Metabolic Activation: HAMSTER, LIVER, S-9, AROCLOR 1254 (10%), Method: PREINCUBATION) was “inactive; negative” and the mutagenic call [6] was “inactive; negative”. The mutagenic call (Test System: AMES SALMONELLA TYPHIMURIUM, Strain/Indicator: TA100, Metabolic Activation: RAT, LIVER, S-9, AROCLOR 1254 (10%), Method: PREINCUBATION) was “inactive; negative”, the mutagenic call (Test System: AMES SALMONELLA TYPHIMURIUM, Strain/Indicator: TA100, Metabolic Activation: RAT, LIVER, S-9, PCB, Method: PREINCUBATION) was “inactive; negative” and the mutagenic call (Test System: AMES SALMONELLA TYPHIMURIUM, Strain/Indicator: TA1535, Metabolic Activation: HAMSTER, LIVER, S-9, AROCLOR 1254 (10%), Method: PREINCUBATION) was “inactive; negative”. For the same compound, the mutagenic call [8] was “inactive; negative”, the mutagenic call (Test System: AMES SALMONELLA TYPHIMURIUM, Strain/Indicator: TA1535, Metabolic Activation: RAT, LIVER, S-9, AROCLOR 1254 (10%), Method: PREINCUBATION) was “inactive; negative” and the mutagenic call (Test System: AMES SALMONELLA TYPHIMURIUM, Strain/Indicator: TA1537, Metabolic Activation: HAMSTER, LIVER, S-9, AROCLOR 1254 (10%), Method: PREINCUBATION) was “inactive; negative”. For the same compound, the mutagenic call [9] was “inactive; negative” and the mutagenic call (Test System: AMES SALMONELLA TYPHIMURIUM, Strain/Indicator: TA1537, Metabolic Activation: RAT, LIVER, S-9, AROCLOR 1254 (10%), Method: PREINCUBATION) was “inactive; negative”.
In the case of O=C(c1ccc(F)cc1)[C@@H]1O[C@@H]1c1ccccc1, the mutagenic call [1] is reported as “inactive; negative”, the mutagenic call [2] is reported as “inactive; negative” and the mutagenic call [3] is reported as “active; positive”. For the same compound, the mutagenic call [4] was “inactive; negative”.
In the case of Oc1c(Cl)c(Cl)c(O)c(Cl)c1Cl, the mutagenic call (Test System: CHINESE HAMSTER V79 CELLS, Strain/Indicator: V79 CELLS (HPRT)/6-THIOGUANINE, Metabolic Activation: NONE, Method: PREINCUBATION) is reported as “active; positive”, the mutagenic call (Test System: CHINESE HAMSTER V-79, Strain/Indicator: V-79/6-THIOGUANINE, Metabolic Activation: NONE, Method: SUSPENSION/PLATE) is reported as “active; positive” and the mutagenic call (Test System: CHINESE HAMSTER V-79, Strain/Indicator: V-79/OUABAIN, Metabolic Activation: NONE, Method: SUSPENSION/PLATE) is reported as “inactive; negative”. For the same compound, the mutagenic call (Test System: UDS HUMAN FIBROBLASTS, Strain/Indicator: THY INCORP, Metabolic Activation: NONE, Method: AUTORADIOGRAPHY) was “active; positive”.
With ClCc1ccc(Cl)cc1 the mutagenic call (End Point: In vitro chromosomal aberrations, Test System: Chinese hamster lung (CHL/IU) cells, Metabolic Activation: Rat, Liver, S9, Phenobarbital and 5,6-benzoflavone) was “active; positive (structural changes and ploidy). precipitation in the culture medium at”, the mutagenic call [5] was “inactive; negative” and the mutagenic call (Test System: AMES SALMONELLA TYPHIMURIUM, Strain/Indicator: TA98, Metabolic Activation: RAT LIVER S-9, PHENOBARBITAL AND BETA-NAPHTHOFLAVONE, Method: PREINCUBATION) was “inactive; negative”. The mutagenic call [6] was “inactive; negative”, the mutagenic call [3] was “inactive; negative” and the mutagenic call (Test System: AMES SALMONELLA TYPHIMURIUM, Strain/Indicator: TA100, Metabolic Activation: RAT LIVER S-9, PHENOBARBITAL AND BETA-NAPHTHOFLAVONE, Method: PREINCUBATION) was “inactive; negative”. The mutagenic call (Test System: AMES SALMONELLA TYPHIMURIUM, Strain/Indicator: TA102, Metabolic Activation: NONE, Method: PREINCUBATION) was “inactive; negative”, the mutagenic call (Test System: AMES SALMONELLA TYPHIMURIUM, Strain/Indicator: TA102, Metabolic Activation: RAT LIVER S-9, PHENOBARBITAL AND BETA-NAPHTHOFLAVONE, Method: PREINCUBATION) was “inactive; negative” and the mutagenic call [7] was “inactive; negative”. The mutagenic call (Test System: AMES SALMONELLA TYPHIMURIUM, Strain/Indicator: TA104, Metabolic Activation: RAT LIVER S-9, PHENOBARBITAL AND BETA-NAPHTHOFLAVONE, Method: PREINCUBATION) was “inactive; negative”, the mutagenic call [8] was “inactive; negative” and the mutagenic call (Test System: AMES SALMONELLA TYPHIMURIUM, Strain/Indicator: TA1535, Metabolic Activation: RAT LIVER S-9, PHENOBARBITAL AND BETA-NAPHTHOFLAVONE, Method: PREINCUBATION) was “inactive; negative”. The mutagenic call [9] was “inactive; negative”, the mutagenic call (Test System: AMES SALMONELLA TYPHIMURIUM, Strain/Indicator: TA1537, Metabolic Activation: RAT LIVER S-9, PHENOBARBITAL AND BETA-NAPHTHOFLAVONE, Method: PREINCUBATION) was “inactive; negative” and the mutagenic call (Test System: E.COLI, Strain/Indicator: WP2UVRA/PKM101, Metabolic Activation: NONE, Method: PREINCUBATION) was “inactive; negative”. The mutagenic call (Test System: E.COLI, Strain/Indicator: WP2UVRA/PKM101, Metabolic Activation: RAT LIVER S-9, PHENOBARBITAL AND BETA-NAPHTHOFLAVONE, Method: PREINCUBATION) was “inactive; negative”, the mutagenic call (Test System: E.COLI, Strain/Indicator: WP2UVRA, Metabolic Activation: NONE, Method: PREINCUBATION) was “inactive; negative” and the mutagenic call (Test System: E.COLI, Strain/Indicator: WP2UVRA, Metabolic Activation: RAT LIVER S-9, PHENOBARBITAL AND BETA-NAPHTHOFLAVONE, Method: PREINCUBATION) was “inactive; negative”.
